Values quoted from earlier work, collected in patent US10864174B2, “Method maintaining iron homeostasis with shogaols” (priority 2016, dated 2020).

Assays:
[1] = system: H1299 human lung cancer cells; details: one value given for both cell lines, read-out: IC50, growth inhibition
[2] = system: HCT-116 human colon cancer cells; details: one value given for both cell lines, read-out: IC50, growth inhibition
[3] = system: nitric oxide (NO) synthesis; details: compared with [6]-gingerol
arachidonic acid pathway = details: compared with [6]-gingerol

Row | IC50 [1] | IC50 [2] | Compound | inhibitory effects on nitric oxide (NO) synthesis [3] | inhibitory effects on the arachidonic acid pathway (arachidonic acid pathway)
1 | ~150 µM | ~150 µM | CCCCC[C@H](O)CC(=O)CCc1ccc(O)c(OC)c1 [[6]-gingerol, reference compound] | – | –
2 | ~8 µM | ~8 µM | CCCCC/C=C/C(=O)CCc1ccc(O)c(OC)c1 [[6]-shogaol] | much stronger inhibitory effects | much stronger inhibitory effects
